According to patent US20230052189A1, “TREATMENT OF PRIMARY BILIARY CHOLANGITIS WITH ELAFIBRANOR” (Genfit, priority 2020, published 2023):

Experiments:
patients with PBC = conditions: Nevens et al. 2016; cited from earlier work
subjects with PBC [1] = assay: Phase 2 study: tolerability and safety (TEAEs, pruritus worsening); assay type: in vivo, human; conditions: for percentage of subjects reporting TEAEs (Treatment-Emergent Adverse Events): placebo 80.0%
Procedure: (§1) The study was a Phase 2, double-blind, randomized, parallel group, placebo-controlled study, designed to evaluate the efficacy and safety of elafibranor at doses of 80 mg or 120 mg daily vs placebo in an adult PBC population. This study projected to randomize approximately 45 subjects to 3 treatment groups in a 1:1:1 ratio (elafibranor 80 mg, elafibranor 120 mg, or placebo).
(§2) Subject participation was planned to be a maximum of 20 weeks. The study was comprised of 3 periods: a Screening Period, a Treatment Period, and a Follow-up Period. The Screening Period (Week −4 to Week −1) preceded the 12-week double-blind Treatment Period.
The tolerability and safety of once-per-day oral administration of elafibranor in 80-mg and 120-mg doses in subjects with PBC was assessed as follows: • Physical examination • Vital signs • Medical history • ECG • Hematological parameters • Liver markers • Other biochemical safety parameters

subjects with PBC [2] = assay: Phase 2 study: pruritus (itching) domain of PBC-40 quality of life questionnaire; assay type: in vivo, human; conditions: for median absolute change from baseline to Endpoint in the pruritus/itching domain of PBC-40: placebo 0.0; for median relative change from baseline to Endpoint in the pruritus/itching domain of PBC-40: placebo 0%; for mean absolute change from baseline to Endpoint in the pruritus (itching) domain of PBC-40: placebo 2.1
Procedure: as §1, §2

subjects with PBC [3] = assay: Phase 2 study: change from baseline in pruritus visual analogue scale (VAS); assay type: in vivo, human; conditions: for median relative change from baseline to Endpoint in the pruritus VAS: placebo −7.1%
Procedure: as §1, §2
Considering that pruritus is a preeminent adverse event in subjects with PBC, assessment of pruritus was also considered. More specifically, the change from baseline in pruritus (through 5D-itch scale (measuring the degree, duration, direction [improvement or worsening], disability [effect on daily activities], and distribution of itching) and visual analogue scale for pruritus (VAS).
The 5D-itch scale is a reliable, multidimensional measure of itching that has been validated in patients with chronic pruritus to detect changes over time (Elman S, et al., The 5-D itch scale: a new measure of pruritus. Br J Dermatol. 2010; 162(3):587-593.). The VAS is a reliable and validated method of pruritus assessment (Reich A, et al., Visual analogue scale: evaluation of the instrument for the assessment of pruritus. Acta Derm Venereol.2012; 92(5):497-501).
Pruritus scoring values and absolute changes from baseline are provided for each domain of the 5D-itch scale (duration, degree, direction, disability, and distribution) and for the VAS by subject and by visit; baseline and Endpoint values are flagged in this listing; total scores at each visit are also summarized in this listing.

subjects with PBC [4] = assay: Phase 2 double-blind placebo-controlled study: change from baseline in serum ALP; assay type: in vivo, human; conditions: for treatment effect estimate vs placebo, relative change in serum ALP (supportive analysis): ANCOVA with baseline ALP as covariate; for treatment effect estimate vs placebo, relative change in serum ALP (primary analysis): non-parametric randomization-based ANCOVA with baseline ALP as covariate, p<0.001; for mean relative change (%) from baseline to Endpoint in serum ALP: 12-week treatment, placebo 3.2%
Procedure: as §1, §2
A decrease in ALP levels is recognized as a particularly relevant surrogate marker for the treatment of PBC. Consequently the primary endpoint of the study is to evaluate the efficacy of elafibranor 80 mg or 120 mg with respect to relative change from baseline in serum ALP levels compared to placebo.

[5] = 80 mg and 120 mg treatment groups

With `CC[C@H]1[C@@H](O)[C@@H]2[C@H](CC[C@]3(C)[C@@H]([C@H](C)CCC(=O)O)CC[C@@H]23)[C@@]2(C)CC[C@@H](O)C[C@@H]12` [OCA, obeticholic acid] as the compound, how does the pruritus adverse event (patients with PBC) read?
Its pruritus adverse event is “severe pruritus has been reported”.

With `CSc1ccc(C(=O)C=Cc2cc(C)c(OC(C)(C)C(=O)O)c(C)c2)cc1` [elafibranor, 2-(2,6-dimethyl-4-{3-[4-(methylsulfanyl)phenyl]-3-oxopropen-1-yl}phenoxy)-2-methylpropanoic acid] as the compound, how does the “safety and tolerability in patients” value (subjects with PBC [1]; 80 mg and 120 mg) read?
Its value is “safe and well-tolerated”.

And the worsening of pruritus (subjects with PBC [1]; 80 mg and 120 mg)?
Its worsening of pruritus is “no worsening of pruritus”.

And the “percentage of subjects reporting TEAEs (Treatment-Emergent Adverse Events)” value (subjects with PBC [1]; 80 mg)?
Its value is 80.0%.

What about the “percentage of subjects reporting TEAEs (Treatment-Emergent Adverse Events)” value (subjects with PBC [1]; 120 mg) of the same compound?
The value was 86.7%.

What about the “median absolute change from baseline to Endpoint in the pruritus/itching domain of PBC-40” value (subjects with PBC [2]; 80 mg) of the same compound?
Its value is −1.0.

What about the “median relative change from baseline to Endpoint in the pruritus/itching domain of PBC-40” value (subjects with PBC [2]; 80 mg) of the same compound?
The value was −25.0%.

What about the “mean absolute change from baseline to Endpoint in the pruritus (itching) domain of PBC-40” value (subjects with PBC [2]; 80 mg) of the same compound?
Its value is −0.9.

And the “median absolute change from baseline to Endpoint in the pruritus/itching domain of PBC-40” value (subjects with PBC [2]; 120 mg)?
The value was −1.0.

What about the “median relative change from baseline to Endpoint in the pruritus/itching domain of PBC-40” value (subjects with PBC [2]; 120 mg) of the same compound?
Its value is −20.8%.

And the “mean absolute change from baseline to Endpoint in the pruritus (itching) domain of PBC-40” value (subjects with PBC [2]; 120 mg)?
Its value is −4.1.

And the “median pruritus VAS from baseline through Week 12 (trend)” value (subjects with PBC [3]; [5])?
The value was “declining median VAS as early as Week 2”.

And the “median relative change from baseline to Endpoint in the pruritus VAS” value (subjects with PBC [3]; 80 mg)?
Its value is −23.7%.

And the “median relative change from baseline to Endpoint in the pruritus VAS” value (subjects with PBC [3]; 120 mg)?
Its value is −49.5%.

And the “change from baseline in serum ALP vs placebo at Endpoint (significance)” value (subjects with PBC [4]; [5])?
The value was “statistically significantly different from placebo”.

What about the “mean ALP values from baseline through Week 12 (trend)” value (subjects with PBC [4]; 80 mg and 120 mg treatment groups, 12 week study) of the same compound?
The value was “declining mean ALP values”.

What about the “treatment effect estimate vs placebo, relative change in serum ALP (supportive analysis)” value (subjects with PBC [4]; 80 mg, 95% CI [−63.3, −39.5]) of the same compound?
The value was −51.4%.

And the “treatment effect estimate vs placebo, relative change in serum ALP (primary analysis)” value (subjects with PBC [4]; 80 mg, 95% CI [−62.5, −41.5])?
The value was −52.0%.

What about the “treatment effect estimate vs placebo, relative change in serum ALP (supportive analysis)” value (subjects with PBC [4]; 120 mg, 95% CI [−55.8, −31.9]) of the same compound?
Its value is −43.9%.

And the “treatment effect estimate vs placebo, relative change in serum ALP (primary analysis)” value (subjects with PBC [4]; 120 mg, 95% CI [−55.7, −32.1])?
Its value is −43.9%.

And the “mean relative change (%) from baseline to Endpoint in serum ALP” value (subjects with PBC [4]; elafibranor 80 mg daily oral)?
Its value is −48.3%.

What about the “mean relative change (%) from baseline to Endpoint in serum ALP” value (subjects with PBC [4]; elafibranor 120 mg daily oral) of the same compound?
The value was −40.6%.
